Laboratory results: ChEMBL document CHEMBL3580544, “Interaction of α-Hexylcinnamaldehyde with a Biomembrane Model: A Possible MDR Reversal Mechanism” (J Nat Prod, 2015)
The source made the active and inactive calls. The rule behind the calls is not given here.

Columns and labels:
[1] = Antioxidant activity assessed as inhibition of AAPH-induced crocin oxidation in hydrophilic medium at 5 to 500 uM by crocin bleaching assay; format: physicochemical
[2] = Antioxidant activity assessed as inhibition of AAPH-induced crocin oxidation at 5 to 500 uM in lipophilic medium containing linoleic acid by crocin bleaching assay; format: physicochemical
[3] = Induction of thermotropic behavior changes in dimyristoylphosphatidylcholine multilamellar vesicles assessed as reduction in enthalpy of phase transition at 0.06 molar fraction by differential scanning calorimetry; design: scale not given: the % may be the effect or the level left
[4] = Induction of thermotropic behavior changes in dimyristoylphosphatidylcholine multilamellar vesicles assessed as reduction in enthalpy of phase transition at 0.015 molar fraction by differential scanning calorimetry; design: scale not given: the % may be the effect or the level left
[5] = system: Lipid bilayer; test: Binding affinity to external surface of dimyristoylphosphatidylcholine multilamellar vesicles at 0.09 molar fraction by differential scanning calorimetry
[6] = Induction of thermotropic behavior changes in dimyristoylphosphatidylcholine multilamellar vesicles assessed as reduction in enthalpy of phase transition at 0.09 molar fraction by differential scanning calorimetry; design: scale not given: the % may be the effect or the level left
[7] = system: Lipid bilayer; test: Induction of thermotropic behavior changes in dimyristoylphosphatidylcholine multilamellar vesicles assessed as reduction in enthalpy of phase transition at 0.12 molar fraction by differential scanning calorimetry; design: scale not given: the % may be the effect or the level left
[8] = Pro-oxidant activity in lipophilic medium containing linoleic acid by crocin bleaching assay; format: functional
[9] = Induction of thermotropic behavior changes in dimyristoylphosphatidylcholine multilamellar vesicles assessed as reduction in enthalpy of phase transition at 0.045 molar fraction by differential scanning calorimetry; design: scale not given: the % may be the effect or the level left
[10] = Induction of thermotropic behavior changes in dimyristoylphosphatidylcholine multilamellar vesicles assessed as changes in pre-transition peak at 0.015 to 0.15 molar fraction by differential scanning calorimetry
[11] = Pro-oxidant activity in hydrophilic medium by crocin bleaching assay; format: functional
[12] = Induction of thermotropic behavior changes in dimyristoylphosphatidylcholine multilamellar vesicles assessed as changes in main transition peak at 0.015 to 0.15 molar fraction by differential scanning calorimetry
[13] = Induction of thermotropic behavior changes in dimyristoylphosphatidylcholine multilamellar vesicles assessed as reduction in enthalpy of phase transition at 0.15 molar fraction by differential scanning calorimetry; design: scale not given: the % may be the effect or the level left
[14] = Induction of thermotropic behavior changes in dimyristoylphosphatidylcholine multilamellar vesicles assessed as reduction in transition temperature at 0.015 to 0.15 molar fraction by differential scanning calorimetry
[15] = Drug absorption in dimyristoylphosphatidylcholine multilamellar vesicles at 0.09 molar fraction by differential scanning calorimetry; format: physicochemical
[16] = Induction of thermotropic behavior changes in dimyristoylphosphatidylcholine multilamellar vesicles assessed as reduction in cooperativity among phospholipid molecules by measuring peak width at half height at 0.015 to 0.15 molar fraction by differential scanning calorimetry
[17] = Drug absorption in dimyristoylphosphatidylcholine multilamellar vesicles at 0.045 molar fraction using lipophilic medium as carrier by differential scanning calorimetry; format: physicochemical; conditions: octanol/water
[18] = Induction of thermotropic behavior changes in dimyristoylphosphatidylcholine multilamellar vesicles assessed as reduction in enthalpy of phase transition at 0.015 to 0.15 molar fraction by differential scanning calorimetry
[19] = Induction of thermotropic behavior changes in dimyristoylphosphatidylcholine multilamellar vesicles assessed as reduction in enthalpy of phase transition at 0.03 molar fraction by differential scanning calorimetry; design: scale not given: the % may be the effect or the level left

Row | Structure (SMILES) | Activity [1] | Activity [2] | Activity [3] | Activity [4] | Activity [5] | Activity [6] | Activity [7] | Activity [8] | Activity [9] | Activity [10] | Activity [11] | Activity [12] | Activity [13] | Activity [14] | Drug uptake [15] | Activity [16] | Drug uptake [17] | Activity [18] | Activity [19]
1 | Cc1c(C)c2c(c(C)c1O)CCC(C)(C(=O)O)O2 (stereo unspecified) [TROLOX] | Active | Active | – | – | – | – | – | – | – | – | – | – | – | – | – | – | – | – | –
2 | CCCCCC/C(C=O)=C\c1ccccc1 | Active | Active | 91.7% | 95% | Active | 79.5% | 71.2% | inactive | 98.3% | Active | inactive | Active | 74.1% | Dose-dependent effect | Active | Dose-dependent effect | Active | Dose-dependent effect | 96%
